“And” between values parts separate entries of the source, which are not always exact repeats. Identical values can stand only once. Inconclusive results and toxic doses are left out.
System: BDF1 mice, B16 melanoma ip, median survival T/C
Assay: NCI In Vivo Anticancer Drug Screen. Data for tumor model B16 Melanoma (intraperitoneal) in B6D2F1 (BDF1) mice
Conditions: endpoint: median survival time, higher = longer survival
In short: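 The ratio T/C compares compound-treated mice with vehicle-treated controls, using survival or tumor size as the endpoint in a transplantable tumor model.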

[1] = dose: 100.0 mg/kg/injection, schedule: Q01DX009 (ip), vehicle: Klucel (hydroxypropylcellulose) (HPC)
[2] = dose: 200.0 mg/kg/injection, schedule: Q01DX009 (ip), vehicle: Klucel (hydroxypropylcellulose) (HPC)
[3] = dose: 400.0 mg/kg/injection, schedule: Q01DX009 (ip), vehicle: Klucel (hydroxypropylcellulose) (HPC)
[4] = dose: 1.56 mg/kg/injection, schedule: Q01DX009 (ip), vehicle: saline
[5] = dose: 3.12 mg/kg/injection, schedule: Q01DX009 (ip), vehicle: saline
[6] = dose: 100.0 mg/kg/injection, schedule: Q04DX003 (ip), vehicle: saline
[7] = dose: 200.0 mg/kg/injection, schedule: Q04DX003 (ip), vehicle: saline
[8] = dose: 25.0 mg/kg/injection, schedule: Q01DX009 (ip), vehicle: saline
[9] = dose: 25.0 mg/kg/injection, schedule: Q01DX009 (ip), vehicle: saline with Tween-80
[10] = dose: 50.0 mg/kg/injection, schedule: Q01DX009 (ip), vehicle: saline with Tween-80
[11] = dose: 12.5 mg/kg/injection, schedule: Q01DX009 (ip), vehicle: saline with Tween-80
[12] = dose: 0.5 mg/kg/injection, schedule: Q01DX009 (ip), vehicle: saline
[13] = dose: 1.0 mg/kg/injection, schedule: Q01DX009 (ip), vehicle: saline
[14] = dose: 2.0 mg/kg/injection, schedule: Q01DX009 (ip), vehicle: saline

SMILES: C[CH2][Sn]([F])([CH2]C)[CH2]C
- T/C (dose: 0.37 mg/kg/injection, schedule: Q01DX009 (ip), vehicle: saline with Tween-80): 104 % of control
- T/C (dose: 0.75 mg/kg/injection, schedule: Q01DX009 (ip), vehicle: saline with Tween-80): 109 % of control
- T/C (dose: 1.5 mg/kg/injection, schedule: Q01DX009 (ip), vehicle: saline with Tween-80): 102 % of control
- T/C (dose: 3.0 mg/kg/injection, schedule: Q01DX009 (ip), vehicle: saline with Tween-80): 94 % of control

SMILES: Cc1ccc(Cl)cc1NC(=O)c1ccccc1Cl
- T/C [1]: 108 % of control
- T/C [2]: 98 % of control

SMILES: CC1(C)CC(O)(C(Cl)c2ccccc2)C(=O)c2ccccc21 (centres undefined)
- T/C (dose: 50.0 mg/kg/injection, schedule: Q01DX009 (ip), vehicle: Klucel (hydroxypropylcellulose) (HPC)): 103 % of control
- T/C [1]: 95 % of control
- T/C [2]: 94 % of control
- T/C [3]: 90 % of control

SMILES: O=c1[nH]c(=O)n(C2OC(CO)C(O)C2O)cc1F (centres undefined)
- T/C (dose: 0.78 mg/kg/injection, schedule: Q01DX009 (ip), vehicle: saline): 156 % of control
- T/C [4]: 165 % of control
- T/C [5]: 165 % of control

SMILES: C1CC2(CCN1)SSC1(CCNCC1)S2
- T/C [6]: 100 % of control
- T/C [7]: 100 % of control

SMILES: Cc1[nH]c(=S)sc1C
- T/C [8]: 102 % of control
- T/C (dose: 50.0 mg/kg/injection, schedule: Q01DX009 (ip), vehicle: saline): 91 % of control
- T/C (dose: 100.0 mg/kg/injection, schedule: Q01DX009 (ip), vehicle: saline): 102 % of control

SMILES: COC(=O)C1=CO[C@@H](C)[C@@H]2Cn3ccc4c5ccccc5nc-4c3C[C@H]12
- T/C [9]: 94 % of control
- T/C [10]: 89 % of control

SMILES: CCCCC(CC)COP(=O)(CC(CC)CCCC)OCC(CC)CCCC (centres undefined)
- T/C (dose: 6.25 mg/kg/injection, schedule: Q01DX009 (ip), vehicle: saline with Tween-80): 94 % of control
- T/C (dose: 6.25 mg/kg/injection, schedule: Q04DX003 (ip), vehicle: saline): 107 % of control
- T/C (dose: 8.0 mg/kg/injection, schedule: Q04DX003 (ip), vehicle: saline with Tween-80): 102 % of control
- T/C (dose: 12.0 mg/kg/injection, schedule: Q04DX003 (ip), vehicle: saline with Tween-80): 97 % of control
- T/C [11]: 89 % of control
- T/C (dose: 18.0 mg/kg/injection, schedule: Q04DX003 (ip), vehicle: saline with Tween-80): 100 % of control
- T/C [9]: 86 % of control
- T/C (dose: 25.0 mg/kg/injection, schedule: Q04DX003 (ip), vehicle: saline): 123 % of control

SMILES: O=C(CCN1CC1)Nc1ccc(NC(=O)CCN2CC2)cc1
- T/C (dose: 5.0 mg/kg/injection, schedule: Q04DX003 (ip), vehicle: Klucel (hydroxypropylcellulose) (HPC)): 170 % of control
- T/C (dose: 10.0 mg/kg/injection, schedule: Q04DX003 (ip), vehicle: Klucel (hydroxypropylcellulose) (HPC)): 173 % of control and 184 % of control
- T/C (dose: 20.0 mg/kg/injection, schedule: Q04DX003 (ip), vehicle: Klucel (hydroxypropylcellulose) (HPC)): 160 % of control and 175 % of control
- T/C (dose: 40.0 mg/kg/injection, schedule: Q04DX003 (ip), vehicle: Klucel (hydroxypropylcellulose) (HPC)): 105 % of control

SMILES: CNCCCC1c2ccccc2C=Cc2ccccc21
- T/C [4]: 106 % of control
- T/C [5]: 118 % of control
- T/C (dose: 6.25 mg/kg/injection, schedule: Q01DX009 (ip), vehicle: saline): 103 % of control
- T/C (dose: 12.5 mg/kg/injection, schedule: Q01DX009 (ip), vehicle: saline): 112 % of control
- T/C [8]: 109 % of control

SMILES: COC(=O)c1ccc(C(=O)OC)[n+]([O-])c1
- T/C [6]: 105 % of control
- T/C [7]: 112 % of control
- T/C (dose: 400.0 mg/kg/injection, schedule: Q04DX003 (ip), vehicle: saline): 105 % of control

SMILES: C/C=C/c1cc2c(c(=O)o1)C(=O)[C@@H](O)[C@H](C)O2
- T/C [11]: 95 % of control
- T/C [9]: 90 % of control
- T/C [10]: 95 % of control
- T/C (dose: 100.0 mg/kg/injection, schedule: Q01DX009 (ip), vehicle: saline with Tween-80): 110 % of control

SMILES: CC1CN1c1nc(N2CC2C)nc(N2CC2C)n1 (centres undefined)
- T/C (dose: 0.25 mg/kg/injection, schedule: Q01DX009 (ip), vehicle: saline): 105 % of control
- T/C [12]: 97 % of control
- T/C (dose: 1.0 mg/kg/injection, schedule: Q01DX009 (ip), vehicle: saline with Tween-80): 111 % of control
- T/C [13]: 98 % of control
- T/C (dose: 2.0 mg/kg/injection, schedule: Q01DX009 (ip), vehicle: saline with Tween-80): 116 % of control
- T/C [14]: 94 % of control
- T/C (dose: 2.0 mg/kg/injection, schedule: Q04DX003 (ip), vehicle: saline): 105 % of control
- T/C (dose: 4.0 mg/kg/injection, schedule: Q01DX009 (ip), vehicle: saline with Tween-80): 105 % of control
- T/C (dose: 4.0 mg/kg/injection, schedule: Q04DX003 (ip), vehicle: saline): 94 % of control
- T/C (dose: 8.0 mg/kg/injection, schedule: Q01DX009 (ip), vehicle: saline with Tween-80): 90 % of control
- T/C (dose: 8.0 mg/kg/injection, schedule: Q04DX003 (ip), vehicle: saline): 105 % of control

SMILES: COCCOC1=C(N2CC2)C(=O)C(OCCOC)=C(N2CC2)C1=O
- T/C [12]: 102 % of control and 123 % of control
- T/C [13]: 110 % of control
- T/C [14]: 94 % of control
- T/C (dose: 4.0 mg/kg/injection, schedule: Q01DX009 (ip), vehicle: saline): 150 % of control

SMILES: COc1ccc(/C=C(\C)[N+](=O)[O-])cc1OC
- T/C (dose: 12.5 mg/kg/injection, schedule: Q01DX009 (ip), vehicle: other): 88 % of control
- T/C (dose: 25.0 mg/kg/injection, schedule: Q01DX009 (ip), vehicle: other): 93 % of control

SMILES: CCN(C)c1cc2c3c(c1)CCCN3CCC2
- T/C (dose: 0.63 mg/kg/injection, schedule: Q01DX009 (ip), vehicle: saline): 111 % of control
- T/C (dose: 1.25 mg/kg/injection, schedule: Q01DX009 (ip), vehicle: saline): 95 % of control
- T/C (dose: 2.5 mg/kg/injection, schedule: Q01DX009 (ip), vehicle: saline): 101 % of control
- T/C (dose: 5.0 mg/kg/injection, schedule: Q01DX009 (ip), vehicle: saline): 93 % of control

SMILES: C=C(C)C12CC(C)C34OC(CCCCCCCCCCC)(OC1C3C1OC1(CO)C(O)C1(O)C(=O)C(C)=CC14C)O2 (centres undefined)
- T/C (dose: 0.05 mg/kg/injection, schedule: Q01DX009 (ip), vehicle: distilled water + Tween-80): 103 % of control
- T/C (dose: 0.1 mg/kg/injection, schedule: Q01DX009 (ip), vehicle: distilled water + Tween-80): 102 % of control
- T/C (dose: 0.2 mg/kg/injection, schedule: Q01DX009 (ip), vehicle: distilled water + Tween-80): 91 % of control
- T/C (dose: 0.4 mg/kg/injection, schedule: Q01DX009 (ip), vehicle: distilled water + Tween-80): 90 % of control

SMILES: Cc1c(Cl)cccc1NC(=O)Nc1ccccc1Cl
- T/C (dose: 75.0 mg/kg/injection, schedule: Q01DX009 (ip), vehicle: Klucel (hydroxypropylcellulose) (HPC)): 106 % of control
- T/C (dose: 150.0 mg/kg/injection, schedule: Q01DX009 (ip), vehicle: Klucel (hydroxypropylcellulose) (HPC)): 95 % of control

SMILES: C[C@]12CC[C@H]3[C@@H](CCC4=CC(=O)CC[C@@]43C)[C@@H]1CC[C@@H]2OC(=O)Cc1ccc(N(CCCl)CCCl)cc1
- T/C (dose: 64.0 mg/kg/injection, schedule: Q02DX009 (ip), vehicle: Klucel (hydroxypropylcellulose) (HPC)): 100 % of control and 111 % of control
- T/C (dose: 128.0 mg/kg/injection, schedule: Q02DX009 (ip), vehicle: Klucel (hydroxypropylcellulose) (HPC)): 95 % of control and 115 % of control
- T/C (dose: 256.0 mg/kg/injection, schedule: Q02DX009 (ip), vehicle: Klucel (hydroxypropylcellulose) (HPC)): 122 % of control

SMILES: Cc1ccc(NCCN(C)C)c2c(=O)c3cc(O)ccc3sc12
- T/C (dose: 3.0 mg/kg/injection, schedule: Q01DX009 (ip), vehicle: Klucel (hydroxypropylcellulose) (HPC)): 119 % of control
- T/C (dose: 12.0 mg/kg/injection, schedule: Q01DX009 (ip), vehicle: Klucel (hydroxypropylcellulose) (HPC)): 157 % of control
- T/C (dose: 24.0 mg/kg/injection, schedule: Q01DX009 (ip), vehicle: Klucel (hydroxypropylcellulose) (HPC)): 160 % of control
- T/C (dose: 25.0 mg/kg/injection, schedule: Q01DX009 (ip), vehicle: Klucel (hydroxypropylcellulose) (HPC)): 162 % of control

SMILES: Nc1nc(N)c2nc(CNc3ccc(C(=O)NC(CCC(=O)O)C(=O)O)cc3)cnc2n1 (centres undefined)
- T/C (dose: 0.03 mg/kg/injection, schedule: Q01DX009 (ip), vehicle: saline with Tween-80): 91 % of control
- T/C (dose: 0.13 mg/kg/injection, schedule: Q01DX009 (ip), vehicle: saline with Tween-80): 102 % of control
- T/C (dose: 0.25 mg/kg/injection, schedule: Q01DX009 (ip), vehicle: saline with Tween-80): 91 % of control and 95 % of control

SMILES: CC(O)COc1ccc(OCc2ccccc2)cc1 (centres undefined)
- T/C [1]: 106 % of control
- T/C [2]: 109 % of control
- T/C [3]: 100 % of control
